Experimental data reported in US20050112573A1, “Method of detecting toxic substance” (priority 2001, published 2005).

Tested on: yeast genes (level of expressed mRNA)
Experiment: DNA chip analysis of expressed mRNA of yeast genes after 2 h culture with a toxic chemical substance
Type: cell-based, Saccharomyces cerevisiae S288C
Details: for The level of expressed mRNA in the presence of chemical substance/ (ratio to absence of chemical substance): stress protein genes, DNA chip
Summary of the method: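 S. cerevisiae S288C in YPD at 25 °C was exposed at log phase for 2 h to a growth-inhibiting, non-lethal concentration of the chemical. Poly(A) mRNA was reverse-transcribed with Cy3- or Cy5-dUTP and hybridized to a whole-genome yeast DNA chip (65 °C, >12 h). Values are fluorescence ratios versus untreated cells.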

SMILES: C[S+](C)[O-] [(15), dimethylsulfoxide]
- The level of expressed mRNA in the presence of chemical substance/ in its absence, gene YDL078C (yeast gene YDL078C, ratio of DNA chip fluorescence intensity to that without chemical substance): 0.5
- The level of expressed mRNA in the presence of chemical substance/ (in its absence), gene YDL215C (yeast gene YDL215C, ratio of DNA chip fluorescence intensity to that without chemical substance): 1.1
- The level of expressed mRNA in the presence of chemical substance/The level of expressed mRNA in the absence of chemical substance (yeast gene YDL238C): 1.3
- The level of expressed mRNA in the presence of chemical substance/The level of expressed mRNA in the absence of chemical substance (yeast gene YDR055W): 5.7
- The level of expressed mRNA in the presence of chemical substance/ (in its absence), gene YDR073W (yeast gene YDR073W, ratio of DNA chip fluorescence intensity to that without chemical substance): 0.8
- The level of expressed mRNA in the presence of chemical substance/ in its absence, gene YDR079W (yeast gene YDR079W, energy system protein genes, 2 h culture with the chemical, ratio to control without chemical): 0.6
- The level of expressed mRNA in the presence of chemical substance/ (ratio to absence), gene YDR079W (yeast gene YDR079W, mitochondria-located protein genes, 2 h culture with chemical): 0.6
- The level of expressed mRNA in the presence of chemical substance/The level of expressed mRNA in the absence of chemical substance (yeast gene YDR084C): 3.9
- The level of expressed mRNA in the presence of chemical substance/The level of expressed mRNA in the absence of chemical substance (yeast gene YDR085C): 3.1
- The level of expressed mRNA in the presence of chemical substance/The level of expressed mRNA in the absence of chemical substance (yeast gene YDR104C): 1.4
- The level of expressed mRNA in the presence of chemical substance/The level of expressed mRNA in the absence of chemical substance (yeast gene YDR115W): 0.8
- The level of expressed mRNA in the presence of chemical substance/The level of expressed mRNA in the absence of chemical substance (yeast gene YDR259C): 2.9
- The level of expressed mRNA in the presence of chemical substance/ (in its absence), gene YDR297W (yeast gene YDR297W, ratio of DNA chip fluorescence intensity to that without chemical substance): 1.4
- The level of expressed mRNA in the presence of chemical substance/The level of expressed mRNA in the absence of chemical substance (yeast gene YDR315C): 1.5
- The level of expressed mRNA in the presence of chemical substance/The level of expressed mRNA in the absence of chemical substance (yeast gene YDR358W): 0.9
- The level of expressed mRNA in the presence of chemical substance/ (ratio to absence), gene YDR377W (yeast gene YDR377W, mitochondria-located protein genes, 2 h culture with chemical): 0.6
- The level of expressed mRNA in the presence of chemical substance/ (in its absence), gene YDR387C (yeast gene YDR387C, ratio of DNA chip fluorescence intensity to that without chemical substance): 1.4
- The level of expressed mRNA in the presence of chemical substance/The level of expressed mRNA in the absence of chemical substance (yeast gene YDR388W): 2.6
- The level of expressed mRNA in the presence of chemical substance/The level of expressed mRNA in the absence of chemical substance (yeast gene YDR481C): 3.5
- The level of expressed mRNA in the presence of chemical substance/The level of expressed mRNA in the absence of chemical substance (yeast gene YDR510W): 2.2
- The level of expressed mRNA in the presence of chemical substance/ (ratio to absence of chemical substance) (yeast gene YEL039C): 0.4
- The level of expressed mRNA in the presence of chemical substance/The level of expressed mRNA in the absence of chemical substance (yeast gene YEL066W): 1.0
- The level of expressed mRNA in the presence of chemical substance/ (in its absence), gene YER015W (yeast gene YER015W, ratio of DNA chip fluorescence intensity to that without chemical substance): 0.8
- The level of expressed mRNA in the presence of chemical substance/The level of expressed mRNA in the absence of chemical substance (yeast gene YER039C): 1.2
- The level of expressed mRNA in the presence of chemical substance/ (ratio to absence of chemical substance) (yeast gene YER057C): 1.7
- The level of expressed mRNA in the presence of chemical substance/The level of expressed mRNA in the absence of chemical substance (yeast gene YER107C): 0.7
- The level of expressed mRNA in the presence of chemical substance/The level of expressed mRNA in the absence of chemical substance (yeast gene YER130C): 1.1
- The level of expressed mRNA in the presence of chemical substance/The level of expressed mRNA in the absence of chemical substance (yeast gene YFL028C): 0.8
- The level of expressed mRNA in the presence of chemical substance/The level of expressed mRNA in the absence of chemical substance (yeast gene YFL043C): 1.1
- The level of expressed mRNA in the presence of chemical substance/ (in its absence), gene YGL035C (yeast gene YGL035C, ratio of DNA chip fluorescence intensity to that without chemical substance): 1.0
- The level of expressed mRNA in the presence of chemical substance/ (in its absence), gene YGL115W (yeast gene YGL115W, ratio of DNA chip fluorescence intensity to that without chemical substance): 0.7
- The level of expressed mRNA in the presence of chemical substance/ (ratio to absence of chemical substance) (yeast gene YGL115W): 0.7
- The level of expressed mRNA in the presence of chemical substance/The level of expressed mRNA in the absence of chemical substance (yeast gene YGL158W): 2.3
- The level of expressed mRNA in the presence of chemical substance/ (ratio to absence), gene YGL187C (yeast gene YGL187C, mitochondria-located protein genes, 2 h culture with chemical): 0.3
- The level of expressed mRNA in the presence of chemical substance/ (in its absence), gene YGL205W (yeast gene YGL205W, ratio of DNA chip fluorescence intensity to that without chemical substance): 2.0
- The level of expressed mRNA in the presence of chemical substance/The level of expressed mRNA in the absence of chemical substance (yeast gene YGL229C): 0.2
- The level of expressed mRNA in the presence of chemical substance/ in its absence, gene YGR062C (yeast gene YGR062C, energy system protein genes, 2 h culture with the chemical, ratio to control without chemical): 0.5
- The level of expressed mRNA in the presence of chemical substance/ (ratio to absence), gene YGR062C (yeast gene YGR062C, mitochondria-located protein genes, 2 h culture with chemical): 0.5
- The level of expressed mRNA in the presence of chemical substance/ (in its absence), gene YGR096W (yeast gene YGR096W, ratio of DNA chip fluorescence intensity to that without chemical substance): 0.9
- The level of expressed mRNA in the presence of chemical substance/The level of expressed mRNA in the absence of chemical substance (yeast gene YGR136W): 2.6
- The level of expressed mRNA in the presence of chemical substance/The level of expressed mRNA in the absence of chemical substance (yeast gene YGR189C): 9.3
- The level of expressed mRNA in the presence of chemical substance/The level of expressed mRNA in the absence of chemical substance (yeast gene YGR213C): 6.5
- The level of expressed mRNA in the presence of chemical substance/The level of expressed mRNA in the absence of chemical substance (yeast gene YGR257C): 1.3
- The level of expressed mRNA in the presence of chemical substance/ (in its absence), gene YGR287C (yeast gene YGR287C, ratio of DNA chip fluorescence intensity to that without chemical substance): 2.3
- The level of expressed mRNA in the presence of chemical substance/ (in its absence), gene YGR288W (yeast gene YGR288W, ratio of DNA chip fluorescence intensity to that without chemical substance): 0.8
- The level of expressed mRNA in the presence of chemical substance/ (ratio to absence of chemical substance) (yeast gene YHL028W): 0.6
- The level of expressed mRNA in the presence of chemical substance/ (ratio to absence of chemical substance) (yeast gene YHL046C): 1.0
- The level of expressed mRNA in the presence of chemical substance/The level of expressed mRNA in the absence of chemical substance (yeast gene YHR004C): 1.2
- The level of expressed mRNA in the presence of chemical substance/The level of expressed mRNA in the absence of chemical substance (yeast gene YHR071W): 3.0
- The level of expressed mRNA in the presence of chemical substance/The level of expressed mRNA in the absence of chemical substance (yeast gene YHR139C): 1.9
- The level of expressed mRNA in the presence of chemical substance/The level of expressed mRNA in the absence of chemical substance (yeast gene YHR142W): 4.8
- The level of expressed mRNA in the presence of chemical substance/ (in its absence), gene YHR210C (yeast gene YHR210C, ratio of DNA chip fluorescence intensity to that without chemical substance): 0.5
- The level of expressed mRNA in the presence of chemical substance/ (in its absence), gene YIL006W (yeast gene YIL006W, ratio of DNA chip fluorescence intensity to that without chemical substance): 1.5
- The level of expressed mRNA in the presence of chemical substance/ (ratio to absence of chemical substance) (yeast gene YIL011W): 0.9
- The level of expressed mRNA in the presence of chemical substance/The level of expressed mRNA in the absence of chemical substance (yeast gene YIL123W): 4.8
- The level of expressed mRNA in the presence of chemical substance/The level of expressed mRNA in the absence of chemical substance (yeast gene YIL140W): 3.3
- The level of expressed mRNA in the presence of chemical substance/ (in its absence), gene YJL070C (yeast gene YJL070C, ratio of DNA chip fluorescence intensity to that without chemical substance): 3.5
